Test results taken from patent US20240246942A1, “KINASE INHIBITORS FOR THE TREATMENT OF NEURODEGENERATIVE DISEASES” (priority 2020, published 2024).

Tests used:
Test in all cases: biochemical
[1] = target: T1, panel of 374 wild-type kinases (Homo sapiens, UniProt P29323); settings: read-out: % Enzyme Activity (relative to DMSO controls), EPHB2
T1 construct: purchased Reaction Biology Corporation
T1 sequence (P29323 19-1055): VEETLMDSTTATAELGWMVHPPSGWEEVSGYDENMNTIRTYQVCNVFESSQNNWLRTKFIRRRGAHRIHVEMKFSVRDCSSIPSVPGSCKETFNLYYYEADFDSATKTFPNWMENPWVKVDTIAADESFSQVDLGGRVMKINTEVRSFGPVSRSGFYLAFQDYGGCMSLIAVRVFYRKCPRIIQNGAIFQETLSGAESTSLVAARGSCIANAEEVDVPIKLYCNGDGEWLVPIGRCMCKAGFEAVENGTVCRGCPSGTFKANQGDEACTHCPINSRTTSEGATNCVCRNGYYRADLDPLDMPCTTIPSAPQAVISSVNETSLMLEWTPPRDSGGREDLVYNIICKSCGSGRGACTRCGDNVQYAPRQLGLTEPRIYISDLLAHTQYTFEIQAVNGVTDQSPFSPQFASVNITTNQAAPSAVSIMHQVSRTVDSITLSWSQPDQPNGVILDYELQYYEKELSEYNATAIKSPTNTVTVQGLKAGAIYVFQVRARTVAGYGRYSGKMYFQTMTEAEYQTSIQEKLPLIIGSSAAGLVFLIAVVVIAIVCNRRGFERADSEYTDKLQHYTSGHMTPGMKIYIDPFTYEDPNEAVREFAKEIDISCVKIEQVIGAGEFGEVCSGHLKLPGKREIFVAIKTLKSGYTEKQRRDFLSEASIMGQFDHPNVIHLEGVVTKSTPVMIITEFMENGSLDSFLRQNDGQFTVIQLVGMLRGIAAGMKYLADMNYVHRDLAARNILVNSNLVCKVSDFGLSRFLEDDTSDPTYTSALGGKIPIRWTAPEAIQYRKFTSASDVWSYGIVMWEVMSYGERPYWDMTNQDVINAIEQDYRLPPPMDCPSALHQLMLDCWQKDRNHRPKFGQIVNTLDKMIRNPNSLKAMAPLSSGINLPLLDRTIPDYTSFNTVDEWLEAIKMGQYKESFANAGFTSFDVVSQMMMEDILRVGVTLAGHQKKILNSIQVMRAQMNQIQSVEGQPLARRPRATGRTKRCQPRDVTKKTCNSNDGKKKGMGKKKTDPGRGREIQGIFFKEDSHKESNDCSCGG

[2] = target: T2, panel of 374 wild-type kinases (Homo sapiens, UniProt O75676); settings: read-out: % Enzyme Activity (relative to DMSO controls), MSK2/RPS6KA4
T2 construct: purchased Reaction Biology Corporation

[3] = target: T3, panel of 374 wild-type kinases (Homo sapiens, UniProt Q8NEV4); settings: MYO3A, read-out: % Enzyme Activity (relative to DMSO controls)
T3 construct: purchased Reaction Biology Corporation

[4] = target: T4, panel of 374 wild-type kinases (Homo sapiens, UniProt Q6P3R8); settings: read-out: % Enzyme Activity (relative to DMSO controls), NEK5
T4 construct: purchased Reaction Biology Corporation
T4 sequence (Q6P3R8 1-708): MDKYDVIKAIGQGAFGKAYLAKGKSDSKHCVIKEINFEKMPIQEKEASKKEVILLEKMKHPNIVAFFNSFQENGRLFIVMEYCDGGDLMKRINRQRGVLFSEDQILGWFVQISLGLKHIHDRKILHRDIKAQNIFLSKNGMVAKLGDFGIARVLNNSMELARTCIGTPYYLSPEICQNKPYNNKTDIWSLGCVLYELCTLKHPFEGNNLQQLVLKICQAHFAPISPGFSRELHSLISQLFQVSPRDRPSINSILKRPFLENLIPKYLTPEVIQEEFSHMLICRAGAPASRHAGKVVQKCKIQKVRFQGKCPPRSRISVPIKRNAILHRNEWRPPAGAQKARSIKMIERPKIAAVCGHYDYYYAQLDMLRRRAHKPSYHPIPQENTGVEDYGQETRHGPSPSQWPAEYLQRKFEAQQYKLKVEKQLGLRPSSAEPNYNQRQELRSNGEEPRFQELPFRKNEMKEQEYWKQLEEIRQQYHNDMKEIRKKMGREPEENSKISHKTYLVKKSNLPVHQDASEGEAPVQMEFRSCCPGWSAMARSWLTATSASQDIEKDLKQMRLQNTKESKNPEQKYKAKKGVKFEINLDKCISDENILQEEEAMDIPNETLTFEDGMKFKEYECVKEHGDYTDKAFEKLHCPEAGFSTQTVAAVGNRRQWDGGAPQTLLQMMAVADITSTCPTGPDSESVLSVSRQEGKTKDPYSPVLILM

[5] = target: T5, panel of 374 wild-type kinases (Homo sapiens, UniProt Q6XUX3); settings: read-out: % Enzyme Activity (relative to DMSO controls), kinase RIPK5
T5 construct: purchased Reaction Biology Corporation
T5 sequence (Q6XUX3 1-929): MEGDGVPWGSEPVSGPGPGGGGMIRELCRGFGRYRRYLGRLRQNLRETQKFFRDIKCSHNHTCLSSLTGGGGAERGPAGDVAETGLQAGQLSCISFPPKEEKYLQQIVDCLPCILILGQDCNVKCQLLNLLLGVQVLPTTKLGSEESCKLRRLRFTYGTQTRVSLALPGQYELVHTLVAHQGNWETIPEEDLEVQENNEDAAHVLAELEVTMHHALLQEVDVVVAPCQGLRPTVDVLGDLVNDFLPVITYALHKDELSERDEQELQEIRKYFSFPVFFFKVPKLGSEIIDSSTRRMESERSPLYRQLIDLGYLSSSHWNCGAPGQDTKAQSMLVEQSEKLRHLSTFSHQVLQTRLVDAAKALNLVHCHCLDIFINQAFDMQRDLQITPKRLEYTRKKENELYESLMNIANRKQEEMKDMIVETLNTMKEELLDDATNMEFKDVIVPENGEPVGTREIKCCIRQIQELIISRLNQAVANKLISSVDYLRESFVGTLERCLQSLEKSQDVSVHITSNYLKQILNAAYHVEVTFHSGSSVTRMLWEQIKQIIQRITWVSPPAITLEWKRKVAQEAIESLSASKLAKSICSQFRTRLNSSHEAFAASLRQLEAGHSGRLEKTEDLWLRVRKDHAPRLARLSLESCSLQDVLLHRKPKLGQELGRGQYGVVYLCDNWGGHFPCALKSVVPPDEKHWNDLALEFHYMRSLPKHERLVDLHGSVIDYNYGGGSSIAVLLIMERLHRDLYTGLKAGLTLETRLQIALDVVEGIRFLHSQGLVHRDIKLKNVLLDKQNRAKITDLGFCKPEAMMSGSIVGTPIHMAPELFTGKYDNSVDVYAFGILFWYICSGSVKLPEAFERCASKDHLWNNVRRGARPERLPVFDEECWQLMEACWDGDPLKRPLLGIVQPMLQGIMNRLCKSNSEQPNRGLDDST

T3 sequence (Q8NEV4 whole entry): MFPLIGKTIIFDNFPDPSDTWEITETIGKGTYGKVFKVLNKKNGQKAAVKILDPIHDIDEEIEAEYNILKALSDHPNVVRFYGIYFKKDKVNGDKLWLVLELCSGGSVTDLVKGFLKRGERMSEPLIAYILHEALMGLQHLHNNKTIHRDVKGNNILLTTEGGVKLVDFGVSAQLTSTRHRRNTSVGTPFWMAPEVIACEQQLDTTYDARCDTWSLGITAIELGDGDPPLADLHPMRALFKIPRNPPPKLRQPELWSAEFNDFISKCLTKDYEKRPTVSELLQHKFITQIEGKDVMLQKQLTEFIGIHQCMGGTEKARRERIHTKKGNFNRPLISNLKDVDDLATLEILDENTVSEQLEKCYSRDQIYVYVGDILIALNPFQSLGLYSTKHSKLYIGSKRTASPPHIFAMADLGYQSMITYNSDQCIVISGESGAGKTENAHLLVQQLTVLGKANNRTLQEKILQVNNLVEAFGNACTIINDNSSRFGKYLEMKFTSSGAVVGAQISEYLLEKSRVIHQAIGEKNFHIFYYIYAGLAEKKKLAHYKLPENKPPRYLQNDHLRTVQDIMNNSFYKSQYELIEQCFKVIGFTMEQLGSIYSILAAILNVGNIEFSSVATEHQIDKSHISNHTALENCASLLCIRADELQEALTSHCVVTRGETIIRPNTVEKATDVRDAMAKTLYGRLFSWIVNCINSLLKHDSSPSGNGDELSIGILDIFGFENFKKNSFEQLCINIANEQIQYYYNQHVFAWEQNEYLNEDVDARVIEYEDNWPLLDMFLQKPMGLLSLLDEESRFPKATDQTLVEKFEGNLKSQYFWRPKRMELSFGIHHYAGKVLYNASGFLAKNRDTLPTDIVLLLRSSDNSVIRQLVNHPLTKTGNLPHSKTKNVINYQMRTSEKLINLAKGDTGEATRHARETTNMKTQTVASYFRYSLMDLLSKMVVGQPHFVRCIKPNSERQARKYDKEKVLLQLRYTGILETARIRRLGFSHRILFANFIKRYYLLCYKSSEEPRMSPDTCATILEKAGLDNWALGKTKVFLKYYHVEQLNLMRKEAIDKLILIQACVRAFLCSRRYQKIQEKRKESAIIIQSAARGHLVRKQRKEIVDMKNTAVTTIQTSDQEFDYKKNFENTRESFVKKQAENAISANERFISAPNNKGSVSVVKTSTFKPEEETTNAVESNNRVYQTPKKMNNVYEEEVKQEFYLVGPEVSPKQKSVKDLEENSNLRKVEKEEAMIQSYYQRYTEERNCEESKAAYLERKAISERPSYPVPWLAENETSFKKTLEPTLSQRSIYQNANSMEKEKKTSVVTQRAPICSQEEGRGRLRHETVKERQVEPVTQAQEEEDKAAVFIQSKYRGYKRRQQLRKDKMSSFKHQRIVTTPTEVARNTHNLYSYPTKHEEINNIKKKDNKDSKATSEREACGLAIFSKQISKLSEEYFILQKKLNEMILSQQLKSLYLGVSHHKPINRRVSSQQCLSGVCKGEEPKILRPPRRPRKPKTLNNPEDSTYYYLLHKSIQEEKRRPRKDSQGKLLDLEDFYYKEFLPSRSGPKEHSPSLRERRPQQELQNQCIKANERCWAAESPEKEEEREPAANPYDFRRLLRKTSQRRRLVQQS
T2 sequence (O75676 whole entry): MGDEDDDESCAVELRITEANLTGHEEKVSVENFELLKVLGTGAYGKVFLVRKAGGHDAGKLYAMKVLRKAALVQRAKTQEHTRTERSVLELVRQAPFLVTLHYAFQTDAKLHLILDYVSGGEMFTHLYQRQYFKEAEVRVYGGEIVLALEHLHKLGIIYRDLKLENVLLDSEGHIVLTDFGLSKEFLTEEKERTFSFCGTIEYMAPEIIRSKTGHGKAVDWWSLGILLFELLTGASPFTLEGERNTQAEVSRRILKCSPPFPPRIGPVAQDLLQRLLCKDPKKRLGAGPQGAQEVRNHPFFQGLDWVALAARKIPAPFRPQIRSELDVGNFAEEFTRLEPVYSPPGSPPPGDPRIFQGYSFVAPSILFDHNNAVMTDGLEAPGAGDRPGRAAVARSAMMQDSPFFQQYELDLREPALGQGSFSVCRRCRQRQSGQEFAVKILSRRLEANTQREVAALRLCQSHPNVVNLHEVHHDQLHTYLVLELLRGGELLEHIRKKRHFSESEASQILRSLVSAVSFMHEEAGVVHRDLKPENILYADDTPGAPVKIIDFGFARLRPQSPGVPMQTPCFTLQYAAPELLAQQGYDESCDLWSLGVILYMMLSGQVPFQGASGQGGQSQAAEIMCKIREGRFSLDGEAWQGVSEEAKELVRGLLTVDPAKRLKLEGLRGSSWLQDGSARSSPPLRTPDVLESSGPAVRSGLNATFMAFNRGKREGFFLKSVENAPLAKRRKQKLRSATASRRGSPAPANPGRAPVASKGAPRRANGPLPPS

| Compound | remaining activity at 5 µM [1] [%] | remaining activity at 5 µM [2] [%] | remaining activity at 5 µM [3] [%] | remaining activity at 5 µM [4] [%] | remaining activity at 5 µM [5] [%] | remaining activity at 10 µM ([1]; 10 uM) [%] | remaining activity at 10 µM ([2]; 10 uM) [%] | remaining activity at 10 µM ([3]; 10 uM) [%] | remaining activity at 10 µM ([4]; 10 uM) [%] | remaining activity at 10 µM ([5]; 10 uM) [%] |
| --- | --- | --- | --- | --- | --- | --- | --- | --- | --- | --- |
| O=C(Nc1cnn(-c2csc(C(=O)NC3COC3)c2)c1)Nc1ccccc1Cl [Compound 17, 4-(4-(3-(2-chlorophenyl)ureido)-1H-pyrazol-1-yl)-N-(oxetan-3-yl)thiophene-2-carboxamide] | 101 | 90.7 | 94.5 | 110 | 102 | – | – | – | – | – |
| O=C(Nc1cnn(-c2csc(C(=O)NC3COC3)c2)c1)Nc1c(F)cccc1Cl [Compound 25, 4-(4-(3-(2-chloro-6-fluorophenyl)ureido)-1H-pyrazol-1-yl)-N-(oxetan-3-yl)thiophene-2-carboxamide] | 99.9 | 99.8 | 82.8 | 88.1 | 95.5 | – | – | – | – | – |
| Cc1sc(C(=O)NC2COC2)cc1-n1cc(NC(=O)Nc2c(F)cccc2Cl)cn1 [Compound 27, 4-(4-(3-(2-chloro-6-fluorophenyl)ureido)-1H-pyrazol-1-yl)-5-methyl-N-(oxetan-3-yl)thiophene-2-carboxamide] | – | – | – | – | – | 109 | 105 | 91.1 | 105 | 96.6 |
